Reference: US12552767B2, “3-heteroaryl pyrrolidine and piperidine orexin receptor agonists” (Merck Sharp & Dohme LLC, priority 2020, dated 2026)

Molecular target: T1, human OX2R (Homo sapiens, UniProt O43614)
T1 construct: expressed in transfected cells; host or cells: CHO (Chinese hamster ovary) cells, grown under G418 selection
T1 sequence (O43614 1-444): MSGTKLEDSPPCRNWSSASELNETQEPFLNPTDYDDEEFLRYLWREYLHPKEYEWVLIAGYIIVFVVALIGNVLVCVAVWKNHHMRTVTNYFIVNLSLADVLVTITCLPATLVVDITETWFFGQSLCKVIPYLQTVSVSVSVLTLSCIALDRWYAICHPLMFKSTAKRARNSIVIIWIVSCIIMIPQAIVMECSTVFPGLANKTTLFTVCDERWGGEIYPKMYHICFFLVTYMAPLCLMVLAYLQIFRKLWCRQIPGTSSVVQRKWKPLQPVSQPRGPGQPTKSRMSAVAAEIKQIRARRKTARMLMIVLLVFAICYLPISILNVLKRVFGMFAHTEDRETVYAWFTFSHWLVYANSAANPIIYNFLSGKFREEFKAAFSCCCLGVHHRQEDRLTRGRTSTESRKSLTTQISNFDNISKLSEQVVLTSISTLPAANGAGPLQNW
Assay: IP-One (IPOne) orexin receptor agonist assay in CHO cells expressing human OX2R
Type: cell-based
Conditions: for EC50: CHO cells expressing human OX2R, IP-One IP-1 detection, 2 hours incubation, four parameter logistic fit, read-out: OX2R Potency, EC50; for % of reference agonist maximal effect: human OX2R, percentage of sample raw value/mean max effect (reference compound at 1 uM with 100% activity)
In short: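 CHO cells stably expressing human OX2R were stimulated with compound (10-point ½-log dilutions) for 2 h at 37 °C. IP-1 accumulation was read by HTRF (IP-One, 665/620 nm). EC50 from a four-parameter fit; % effect relative to 1 μM reference agonist control.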

Structure (SMILES)	EC50	% of reference agonist maximal effect
CC1(C)C[C@H]1C(=O)N1CCC[C@H](c2cc[nH]n2)[C@@H]1COC1CCC(c2ccccc2)CC1 (relative stereo) [Example 91, ((R)-2,2-dimethylcyclopropyl)((CIS)-2-((((CIS)-4-phenylcyclohexyl)oxy)methyl)-3-(1H-pyrazol-3-yl)piperidin-1-yl)methanone]	6.7 µM	81%
CC1(C(=O)N2CCC[C@H](c3cc[nH]n3)[C@@H]2CO[C@H]2CC[C@@H](c3ccccc3)CC2)CC1 (relative stereo) [Example 80, (1-methylcyclopropyl)((CIS)-2-((((CIS)-4-phenylcyclohexyl)oxy)methyl)-3-(1H-pyrazol-3-yl)piperidin-1-yl)methanone]	5.55 µM	87.5%
COCC[C@H](N)C(=O)N1CCC[C@H](c2cc[nH]n2)[C@@H]1COC1CCC(C(C)C)CC1 (stereo partly drawn) [Example 72, (S)-2-amino-1-((CIS)-2-((((CIS)-4-isopropylcyclohexyl)oxy)methyl)-3-(1H-pyrazol-3-yl)piperidin-1-yl)-4-methoxybutan-1-one]	3.11 µM	99.5%
CCNC(=O)N1C(C)CCC(c2ccn[nH]2)C1COC1CCC(C(C)C)CC1 (stereo not drawn) [Example 38, N-ethyl-2-(((4-isopropylcyclohexyl)oxy)methyl)-6-methyl-3-(H-pyrazol-5-yl)piperidine-1-carboxamide]	0.241 µM	95.0%
C#CCOC(=O)N1CCC[C@H](c2cc[nH]n2)[C@@H]1CO[C@H]1CC[C@@H](C(C)C)CC1 (relative stereo) [Example 95, prop-2-yn-1-yl (CIS)-2-((((CIS)-4-isopropylcyclohexyl)oxy)methyl)-3-(1H-pyrazol-3-yl)piperidine-1-carboxylate]	8.77 µM	79.7%
O=C(OC1CCCC1)N1CCC[C@H](c2cc[nH]n2)[C@@H]1CO[C@H]1CC[C@@H](c2ccccc2)CC1 (relative stereo) [Example 117, cyclopentyl (CIS)-2-((((CIS)-4-phenylcyclohexyl)oxy)methyl)-3-(1H-pyrazol-3-yl)piperidine-1-carboxylate]	8 µM	47.3%
CC(C)[C@H]1CC[C@@H](OC[C@H]2[C@@H](c3cc[nH]n3)CCCN2C(=O)CCC2CC2)CC1 (relative stereo) [Example 88, 3-cyclopropyl-1-((CIS)-2-((((CIS)-4-isopropylcyclohexyl)oxy)methyl)-3-(1H-pyrazol-3-yl)piperidin-1-yl)propan-1-one]	8.98 µM	79%
CCNC(=O)N1CCC[C@H](c2ccn(C)n2)[C@@H]1CO[C@H]1CC[C@@H](c2ccccc2)CC1 (relative stereo) [Example 27, (CIS)-N-ethyl-3-(1-methyl-1H-pyrazol-3-yl)-2-((((CIS)-4-phenylcyclohexyl)oxy)-methyl)piperidine-1-carboxamide]	3.51 µM	82.5%
CC(C)[C@H]1CC[C@@H](OC[C@H]2[C@@H](c3cc[nH]n3)CCCN2C(=O)C2CC2(C)C)CC1 (relative stereo) [Example 81, (2,2-dimethylcyclopropyl)((CIS)-2-((((CIS)-4-isopropylcyclohexyl)oxy)methyl)-3-(1H-pyrazol-3-yl)piperidin-1-yl)methanone]	5.65 µM	70.0%
O=C(NCC1CCC1)N1CCC[C@H](c2cc[nH]n2)[C@@H]1CO[C@H]1CC[C@@H](c2ccccc2)CC1 (relative stereo) [Example 125, (CIS)-N-(cyclobutylmethyl)-2-((((CIS)-4-phenylcyclohexyl)oxy)methyl)-3-(1H-pyrazol-3-yl)piperidine-1-carboxamide]	0.0224 µM	99.1%
COC(=O)N1CCC[C@H](c2n[nH]cc2C)[C@@H]1COC1CCN(c2ccccc2)CC1 (relative stereo) [Example 8, Methyl (CIS)-3-(4-methyl-1H-pyrazol-3-yl)-2-(((1-phenylpiperidin-4-yl)oxy)methyl)piperidine-1-carboxylate]	5.84 µM	80.9%
C#CCCCC(=O)N1CCC[C@H](c2cc[nH]n2)[C@@H]1CO[C@H]1CC[C@@H](C(C)C)CC1 (relative stereo) [Example 86, 1-((CIS)-2-((((CIS)-4-isopropylcyclohexyl)oxy)methyl)-3-(1H-pyrazol-3-yl)piperidin-1-yl)hex-5-yn-1-one]	8.39 µM	64.7%
COC(=O)N1CCCC(c2ccn[nH]2)C1CO[C@H]1CC[C@@H](c2c(F)ccc(F)c2F)CC1 (stereo partly drawn) [Example 29]	1.36 µM	81.4%
CCNC(=O)N1CCC[C@H](c2ccn[nH]2)[C@@H]1COC1CCC(C(C)C)CC1 (relative stereo) [Example 3, (CIS)-N-ethyl-2-(((4-isopropylcyclohexyl)oxy)methyl)-3-(1H-pyrazol-5-yl)piperidine-1-carboxamide]	0.676 µM	99.9%

Continued, values first:

EC50	% of reference agonist maximal effect	Structure (SMILES)
2.1 µM	79.9%	COC(=O)N1CCC[C@H](c2cc[nH]n2)[C@@H]1CO[C@H]1CC[C@@H](c2ccccc2)CC1 (relative stereo) [Example 21, methyl (CIS)-2-((((CIS)-4-phenylcyclohexyl)oxy)methyl)-3-(1H-pyrazol-3-yl)piperidine-1-carboxylate]
0.0151 µM	101.9%	COC(=O)N1CCC[C@H](c2nc(O)sc2C)[C@@H]1CO[C@H]1CC[C@@H](c2ccccc2)CC1 (relative stereo) [Example 2, Methyl (CIS)-3-(2-hydroxy-5-methylthiazol-4-yl)-2-((((CIS)-4-phenylcyclohexyl)oxy)-methyl)piperidine-1-carboxylate]
5.09 µM	52.4%	CC[C@H](C)COC(=O)N1CCC[C@H](c2cc[nH]n2)[C@@H]1CO[C@H]1CC[C@@H](c2ccccc2)CC1 [Example 107, (S)-2-methylbutyl (CIS)-2-((((CIS)-4-phenylcyclohexyl)oxy)methyl)-3-(1H-pyrazol-3-yl)piperidine-1-carboxylate]
0.795 µM	99.0%	COC(=O)N1CCC[C@H](c2n[nH]cc2C(C)C)[C@@H]1CO[C@H]1CC[C@@H](c2ccccc2)CC1 (single isomer, unassigned) [Example 49]
3.07 µM	66.9%	COC(=O)N1CCC[C@@H](c2n[nH]cc2C(F)F)[C@H]1CO[C@H]1CC[C@@H](c2ccccc2)CC1 [Example 56, Methyl (2S,3R)-3-(4-(difluoromethyl)-pH-pyrazol-3-yl)-2-((((CIS)-4-phenylcyclohexyl)oxy)methyl) piperidine-1-carboxylate]
0.174 µM	98.1%	COC(=O)N1CCC[C@@H](c2csc(O)n2)[C@H]1CO[C@H]1CC[C@@H](c2ccccc2)CC1 (relative stereo) [Example 65]
0.0794 µM	100.2%	COC(=O)N1CCC[C@H](c2n[nH]cc2Cl)[C@@H]1CO[C@H]1CC[C@@H](c2ccccc2)CC1 (single isomer, unassigned) [Example 45]
0.922 µM	97.6%	COC(=O)N1CCC[C@H](c2n[nH]cc2Cl)[C@@H]1CO[C@H]1CC[C@@H](c2ccc(Cl)cc2)CC1 (racemic) [Example 48, Methyl cis-3-(4-chloro-1H-pyrazol-3-yl)-2-((((CIS)-4-(4-chlorophenyl)cyclohexyl)-oxy)methyl)piperidine-1-carboxylate]
0.808 µM	98.8%	COC(=O)N1CCC[C@H](c2nc(O)ccc2C)[C@@H]1CO[C@H]1CC[C@@H](c2ccccc2)CC1 (relative stereo) [Example 66, methyl (CIS)-3-(6-hydroxy-3-methylpyridin-2-yl)-2-((((CIS)-4-phenylcyclohexyl)oxy)methyl)piperidine-1-carboxylate]
0.104 µM	100.5%	COC(=O)N1CCC[C@H](c2n[nH]cc2CO)[C@@H]1CO[C@H]1CC[C@@H](c2ccccc2)CC1 [Example 53]
4.34 µM	96.1%	CC(C)(O)C(=O)N1CCC[C@H](c2cc[nH]n2)[C@@H]1CO[C@H]1CC[C@@H](c2ccccc2)CC1 (relative stereo) [Example 77, 2-hydroxy-2-methyl-1-((CIS)-2-((((CIS)-4-phenylcyclohexyl)oxy)methyl)-3-(1H-pyrazol-3-yl)piperidin-1-yl)propan-1-one]
6.29 µM	78.4%	O=C(OCCF)N1CCC[C@H](c2cc[nH]n2)[C@@H]1CO[C@H]1CC[C@@H](c2ccccc2)CC1 (relative stereo) [Example 111, 2-fluoroethyl (CIS)-2-((((CIS)-4-phenylcyclohexyl)oxy)methyl)-3-(1H-pyrazol-3-yl)piperidine-1-carboxylate]
> 10 µM	15.7%	COC(=O)N1CCC[C@@H](c2n[nH]cc2CO)[C@H]1CO[C@H]1CC[C@@H](c2ccccc2)CC1 (single isomer, unassigned) [Example 54]
